The test system of one test is Panonychus citri. Description: Effectiveness against Panonychus citri (mandarin orange leaf, emulsion applied with rotary spreading tower). Particulars: adult female Panonychus citri; 125 ppm; adults removed 3 days after the application; whether eggs could grow to adults examined on the 11th day. The class given is in vivo. The protocol:
10 adult female Panonychus citri were inoculated on the leaf of a mandarin orange, which was placed in a petri dish. After the inoculation, the drug solution, which was prepared by following the method of the emulsion shown in Example 2 of the drugs and by diluting with water to achieve the compound concentration of 125 ppm, was applied using a rotary spreading tower. The dish was placed in a temperature-controlled room where the temperature and humidity were set to 25° C. and 65% respectively, adults were removed 3 days after the application, and whether eggs laid during these 3 days could grow to become adults was examined on the 11th day.

The subject of another test is Tetranychus urticae. Description: Effectiveness against Tetranychus urticae (common bean leaf, wettable powder drug solution). The class given is in vivo. To be noted: adult female Tetranychus urticae resistant to organophosphorus pesticides; 125 ppm; examined 3 days after the application; 25° C., 65% humidity.

Molecule `CCCOc1cc(C(F)(F)F)ccc1OC1CC2CCC(C1)N2c1ccc(C(F)(F)F)c(F)c1` (stereo not drawn) [Compound 4-70] gave an insecticidal rate with Panonychus citri of 100%. In the test on Tetranychus urticae, the “insecticidal rate (adulticidal rate)” value is 100%.

In the case of `FC(F)(F)c1ccc(OC2CC3CCC(C2)N3c2ccc(C(F)(F)F)cn2)nc1` (stereo not drawn) [Compound 2-3, 3α-(5-trifluoromethyl-2-pyridyloxy)-8-(5-trifluoromethyl-pyridine-2-yl)-8-azabicyclo[3.2.1]octane], the “insecticidal rate (adulticidal rate)” value in the test on Tetranychus urticae amounted to 100%.

(Values after patent publication US8338607B2, “Cyclic amine compounds and agents for pest control” (Nippon Soda Co., Ltd., priority 2005, dated 2012).)
